Test results reported in article PMC10281575, “PfCRT mutations conferring piperaquine resistance in falciparum malaria shape the kinetics of quinoline drug binding and transport” (PLOS Pathogens, 2023).
Several values for one entry are separate records, joined by “and”; a condition that tells them apart may be missing. Identical values can stand only once.

Target: T1, PfCRT^Dd2_F145I (Plasmodium falciparum, UniProt Q8IBZ9, A220S/F145I/I356T/K76T/M74I/N326S/N75E/Q271E/R371I)
T1 construct: expressed in transfected cells; host or cells: Xenopus laevis oocytes injected with in vitro transcribed RNA (pSP64T)
T1 sequence (Q8IBZ9 1-424 M74I/N75E/K76T/F145I/A220S/Q271E/N326S/I356T/R371I): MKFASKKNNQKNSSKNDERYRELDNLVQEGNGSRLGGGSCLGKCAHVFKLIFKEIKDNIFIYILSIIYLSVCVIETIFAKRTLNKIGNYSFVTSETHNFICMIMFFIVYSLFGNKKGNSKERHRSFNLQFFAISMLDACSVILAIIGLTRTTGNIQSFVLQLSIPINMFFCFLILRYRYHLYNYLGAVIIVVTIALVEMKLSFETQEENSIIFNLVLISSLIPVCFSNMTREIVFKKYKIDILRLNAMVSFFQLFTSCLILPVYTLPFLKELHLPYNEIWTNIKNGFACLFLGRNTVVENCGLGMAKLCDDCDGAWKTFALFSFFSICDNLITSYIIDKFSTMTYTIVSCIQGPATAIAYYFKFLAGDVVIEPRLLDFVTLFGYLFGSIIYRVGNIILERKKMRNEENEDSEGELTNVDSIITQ
Experiment: Competition plot (Vtotal versus proportion of PPQ in CQ/PPQ mixtures), PfCRT^Dd2_F145I
Format: cell-based
Conditions: for competition plot result (binding sites): CQ/PPQ mixtures, Vtotal dependent on P
Protocol: To test this hypothesis, we performed competition plot experiments, in which the enzyme or carrier is exposed to substrate mixtures that give the same transport rate for different substrates. The experiment is performed with substrate A labeled and then repeated with substrate B labeled. […] Similar results were found for PfCRT^Dd2_F145I.
Fig 3 Competition plot of the interaction of PfCRT^Dd2 (A) and PfCRT^Dd2_F145I (B) with CQ and PPQ. The competition plot tests whether two substrates bind to the same site or distinct sites on an enzyme or transporter. A competitive reaction would yield data points that lie on a horizontal line, whereas allosteric interactions would reveal a curved relationship. PfCRT-mediated drug uptake was measured from mixtures of radiolabeled CQ and PPQ that combined yielded an uptake close to saturation (Vtotal). Vtotal was subsequently analyzed as a function of the proportion of PPQ in the mixture (P). For more details see Materials and Methods. The mean ± SEM of at least 3 independent biological replicates are shown.
The competition plot was performed as described elsewhere. Briefly, a concentration of CQ and a concentration of PPQ were selected (using the parameters from Table 1), such that (i) the rate of PPQ transport was equivalent to the rate of CQ transport, and (ii) the transport rate for CQ (the less efficiently transported substrate) approached its Vmax. The resulting concentrations for PfCRT^Dd2 were [CQ]^max = 400 μM and [PPQ]^max = 23.1 μM. At these concentrations of CQ and PPQ, the expected uptake is 19.8 pmol h^-1 oocyte^-1. The resulting concentrations for PfCRT^Dd2_F145I were [CQ]^max = 400 μM and [PPQ]^max = 18.2 μM. At these concentrations of CQ and PPQ, the expected uptake is 18.2 pmol h^-1 oocyte^-1. A series of reaction buffers containing CQ and PPQ at concentrations [CQ] = (1—P) x [CQ]^max and [PPQ] = P x [PPQ]^max were assembled, where P is the proportion of PPQ in the mixture. […] These corresponded to values of P equal to 0, 0.25, 0.5, 0.75, 0.9 and 1. A plot of Vtotal as a function of P yielded the competition plots. If both substrates bind to the same site, then a constant Vtotal is expected across all P values (e.g. data lies on a horizontal line). If the substrates bind to different sites, and they inhibit each other’s transport, it is expected that the curve is concave with either a minimum or a maximum.

[1] = CQ/PPQ mixture, P = 0.25, single replicates
[2] = CQ/PPQ mixture, P = 0.5, single replicates
[3] = CQ/PPQ mixture, P = 0.75, single replicates
[4] = CQ/PPQ mixture, P = 0.9, single replicates

SMILES | PfCRTDd2_F145I-mediated CQ transport P = 0 (CQ/PPQ mixture, P = 0, single replicates) | PfCRTDd2_F145I-mediated CQ transport P = 0.25 [1] | PfCRTDd2_F145I-mediated CQ transport P = 0.5 [2] | PfCRTDd2_F145I-mediated CQ transport P = 0.75 [3] | PfCRTDd2_F145I-mediated CQ transport P = 0.9 [4] | competition plot result (binding sites) | PfCRTDd2_F145I-mediated PPQ transport P = 0.25 [1] | PfCRTDd2_F145I-mediated PPQ transport P = 0.5 [2] | PfCRTDd2_F145I-mediated PPQ transport P = 0.75 [3] | PfCRTDd2_F145I-mediated PPQ transport P = 0.9 [4] | PfCRTDd2_F145I-mediated PPQ transport P = 1 (CQ/PPQ mixture, P = 1, single replicates)
CCN(CC)CCCC(C)Nc1ccnc2cc(Cl)ccc12 (stereo not drawn) [CQ, chloroquine] | 14.23 pmol oocyte-1 h-1 and 18.19 pmol oocyte-1 h-1 and 22.31 pmol oocyte-1 h-1 | 16.38 pmol oocyte-1 h-1 and 14.89 pmol oocyte-1 h-1 and 14.95 pmol oocyte-1 h-1 | 11.20 pmol oocyte-1 h-1 and 13.42 pmol oocyte-1 h-1 and 11.66 pmol oocyte-1 h-1 | 8.54 pmol oocyte-1 h-1 and 5.74 pmol oocyte-1 h-1 and 7.98 pmol oocyte-1 h-1 | 3.23 pmol oocyte-1 h-1 and 2.52 pmol oocyte-1 h-1 | occupy different domains | – | – | – | – | –
Clc1ccc2c(N3CCN(CCCN4CCN(c5ccnc6cc(Cl)ccc56)CC4)CC3)ccnc2c1 [PPQ, piperaquine] | – | – | – | – | – | occupy different domains | 3.27 pmol oocyte-1 h-1 and 3.77 pmol oocyte-1 h-1 and 3.82 pmol oocyte-1 h-1 | 7.53 pmol oocyte-1 h-1 and 7.99 pmol oocyte-1 h-1 and 8.13 pmol oocyte-1 h-1 | 12.62 pmol oocyte-1 h-1 and 13.41 pmol oocyte-1 h-1 and 10.66 pmol oocyte-1 h-1 | 15.10 pmol oocyte-1 h-1 and 16.36 pmol oocyte-1 h-1 and 16.00 pmol oocyte-1 h-1 | 16.57 pmol oocyte-1 h-1 and 18.61 pmol oocyte-1 h-1 and 20.05 pmol oocyte-1 h-1
